Test results: patent publication US20250282775A1, “SOLID FORM OF 3-((1R,3R)-1-(2,6-DIFLUORO-4-((1-(3- FLUOROPROPYL)AZETIDIN-3-YL)AMINO)PHENYL)-3-METHYL-1,3,4,9- TETRAHYDRO-2H-PYRIDO[3,4-B]INDOL-2-YL)-2,2-DIFLUOROPROPAN-1-OL TARTRATE” (Hoffmann-La Roche Inc., priority 2022, published 2025)

Columns and labels:
Type in all cases: physicochemical
[1] = Effect of compression on API degradation (HPLC); details: 60° C./11% RH, containers open, up to 4 weeks, tartrate
Description: The effect of compression on API degradation was investigated. Samples of uncompressed API (neat API powder as-is) and compressed API (compact) were aged at 60° C./11% RH with containers open for up to 1 month. Samples were assayed by HPLC (see Example 10). […] The following HPLC method was used to measure the RRCs described herein: [table]

[2] = Bulk density, tapped density and flowability of API; details: for Bulk Density / Tapped Density: API lot
Description: (§1) The following table illustrates the improved manufacturability properties of the crystalline API that is prepared according to the process of the present invention (lot “BS2008SA02”). The E1 lot was prepared according to the process described in WO2019245974.

[3] = Particle size distribution by laser diffraction; details: API lot
Description: The particle size distribution of crystalline 3-((1R,3R)-1-(2,6-difluoro-4-((1-(3-fluoropropyl)azetidin-3-yl)amino)phenyl)-3-methyl-1,3,4,9-tetrahydro-2H-pyrido[3,4-b]indol-2-yl)-2,2-difluoropropan-1-ol tartrate of the invention was analyzed by laser diffraction as described in the USP <429> for Laser Diffraction Measurement of Particle Size and in the European Pharmacopoeia chapter 2.9.31 Particle size analysis by Laser Diffraction. Details of the apparatus used and measurements are given in Example 3.
For the measurement, a Malvern MasterSizer 3000 device from Malvern, UK, coupled with a liquid dispersion unit Hydro MV®, Malvern, UK was used. The crystalline Giredestrant tartrate as obtained from Example 1 or 2 was dispersed in dispersion medium consisting in technical grade n-heptane with 0.2% w/w.-% Span 85 (Sorbitane trioleate, e.g. Fluka/Sigma Cat. Nr. 85549 or equivalent) non-saturated.
Procedure: the crystalline Giredestrant tartrate is directly added in the Hydro MV dispersion unit and stirred at 2500 rpm achieving an appropriate optical concentration (between 5% and 25% optical concentrations).
Measurement: The test dispersion was measured and the cumulative volume dispersion was determined using the laser diffraction instrument mentioned above in accordance with the instruction manual. Measurements were performed after 2 minutes stirring time. The Fraunhofer approximation was used for the particle diameters calculations, Opaque Particle was used for the Particle type and General purpose was used for the Analysis model. The background and the measuring duration were set at 30 seconds.
Three independent samples were measured one time. The average particle size distribution in volume at the undersize values of 10%, 50% and 90% (×10, ×50 and ×90) percentiles were evaluated from the cumulative distribution.
as §1

[4] = BET surface area of API lots; details: API lot
Description: as §1

[5] = Form B as prepared per WO2019245974

growth of the impurity at RRT=0.58 ([1]; listed as compressed API) | bulk density (in words) [2, 5] | flowability [2, 5] | D10 [3] | D50 [3] | D90 [3] | BET SA [4] | Bulk Density [2] | Tapped Density [2] | Structure (SMILES) | growth of the impurity at RRT=0.58 ([1]; listed as uncompressed API)
faster growth rate | low bulk density | poor flowability |  |  |  |  |  |  | C[C@@H]1Cc2c([nH]c3ccccc23)[C@@H](c2c(F)cc(NC3CN(CCCF)C3)cc2F)N1CC(F)(F)CO.O=C(O)C(O)C(O)C(=O)O [giredestrant tartrate, 3-((1R,3R)-1-(2,6-difluoro-4-((1-(3-fluoropropyl)azetidin-3-yl)amino)phenyl)-3-methyl-1,3,4,9-tetrahydro-2H-pyrido[3,4-b]indol-2-yl)-2,2-difluoropropan-1-ol tartrate] | growth of the impurity at RRT=0.58 was observed
 |  |  | 30 μm | 41 μm | 56 μm | 1.7 m2/g | 0.57 g/mL | 0.64 g/mL | C[C@@H]1Cc2c([nH]c3ccccc23)[C@@H](c2c(F)cc(NC3CN(CCCF)C3)cc2F)N1CC(F)(F)CO.O=C(O)C(O)C(O)C(=O)O [BS2008SA02] | 
 |  |  | 2 μm | 8 μm | 27 μm | 2.9 m2/g | 0.31 g/mL | 0.41 g/mL | C[C@@H]1Cc2c([nH]c3ccccc23)[C@@H](c2c(F)cc(NC3CN(CCCF)C3)cc2F)N1CC(F)(F)CO.O=C(O)C(O)C(O)C(=O)O [711-005-5467-001 (E1)] | 
